According to paper PMC9230797, “Integration of a Physiologically Based Pharmacokinetic and Pharmacodynamic Model for Tegoprazan and Its Metabolite: Application for Predicting Food Effect and Intragastric pH Alterations” (Pharmaceutics, 2022):
Where “and” joins values, the source holds several entries; their conditions need not be identical. Identical values can stand only once. Like-named read-outs stand apart in the source and are kept apart here.

Experiments:
[1] = biological target: T1, CYP2C19 (Homo sapiens, UniProt P33261); experiment: Intrinsic clearance using recombinant CYPs: CYP2C19; format: in vitro ADME
T1 construct: purchased Corning Life Sciences (Woburn, MA, USA)
Description: (§1) The elimination profiles of tegoprazan and M1 were assessed using rCYPs. All the assay procedures were performed according to the manufacturer’s instructions. Master mix (1.399 mL), containing the NADPH-generating system, 3.3 mM of glucose 6-phosphate, PBS buffer, deionized water, and each rCYP (25 pmol/μL of CYP2C8, 2C19, and 2E1 and 50 pmol/μL of CYP3A4, 2C9, and 2D6), was added to a microtube and pre-incubated at 37 °C for 5 min. Next, 1 μM tegoprazan and M1 were added and incubated at 37 °C for 0, 5, 10, 20, 30, 45, and 60 min. A total of 100 μL of the sample, incubated for predefined duration, was transferred to a fresh e-tube. Next, 200 μL of acetonitrile containing tegoprazan-d6 (0.5 μM) was added, vortexed for 5 min, and centrifuged at 16,200× g and 4 °C for 10 min. The concentrations of the remaining tegoprazan and M1 were determined by LC–MS/MS. All experiments were performed in duplicate. CLint,rCYP levels were assessed using the results of the disappearance test. […] The CLint resulting from rCYPs was calculated using Equation (3):(3) CLint,rCYP(μL/min/pmol CYP)=0.693/t1/2×1400/concentration of CYP
(§2) Caco-2 and rCYP samples were quantified using LC-MS/MS (UPLC® I-class coupled with TQ-MS (Waters, Milford, MA, USA). The mobile phase comprised (a) 0.1% formic acid and (b) acetonitrile containing 0.1% formic acid. Gradient elution at a flow rate of 0.3 mL/min was applied. Tegoprazan, M1, and the internal standard (tegoprazan-d6) were optimized in electrospray ionization positive mode. Acetonitrile with 0.1 μM of tegoprazan-d6 was added to the collected Caco-2 or rCYP samples. Then, processed samples were centrifuged at 13,000× g for 20 min. After centrifugation, 100 μL of supernatant was transferred to an LC-MS vial and analyzed using LC-MS/MS. […] The stability of tegoprazan was evaluated, and it satisfied the acceptance criteria (coefficient of variances was within 15%) under variable conditions including reinjection, processed sample stability (PSS), and short-term stability for the stock and sample.

[2] = biological target: T2, recombinant CYP2C8 (Homo sapiens, UniProt P10632); experiment: Intrinsic clearance using recombinant CYPs: CYP2C8; format: in vitro ADME; details: 1 μM
T2 construct: purchased Corning Life Sciences (Woburn, MA, USA)
T2 sequence (P10632 1-490): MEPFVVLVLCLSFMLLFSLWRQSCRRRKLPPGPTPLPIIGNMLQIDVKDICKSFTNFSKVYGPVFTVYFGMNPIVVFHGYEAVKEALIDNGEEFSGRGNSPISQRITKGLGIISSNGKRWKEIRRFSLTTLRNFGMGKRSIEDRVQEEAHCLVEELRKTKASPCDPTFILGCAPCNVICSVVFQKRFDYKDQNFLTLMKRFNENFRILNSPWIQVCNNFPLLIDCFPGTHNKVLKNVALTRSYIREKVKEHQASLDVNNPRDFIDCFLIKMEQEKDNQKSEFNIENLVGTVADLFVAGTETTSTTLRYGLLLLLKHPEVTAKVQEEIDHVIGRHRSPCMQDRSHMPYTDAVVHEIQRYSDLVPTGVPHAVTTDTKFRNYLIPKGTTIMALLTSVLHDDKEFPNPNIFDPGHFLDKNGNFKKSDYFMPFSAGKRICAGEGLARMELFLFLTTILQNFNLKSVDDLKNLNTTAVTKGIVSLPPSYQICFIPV
Description: The elimination profiles of tegoprazan and M1 were assessed using rCYPs. All the assay procedures were performed according to the manufacturer’s instructions. Master mix (1.399 mL), containing the NADPH-generating system, 3.3 mM of glucose 6-phosphate, PBS buffer, deionized water, and each rCYP (25 pmol/μL of CYP2C8, 2C19, and 2E1 and 50 pmol/μL of CYP3A4, 2C9, and 2D6), was added to a microtube and pre-incubated at 37 °C for 5 min. Next, 1 μM tegoprazan and M1 were added and incubated at 37 °C for 0, 5, 10, 20, 30, 45, and 60 min. A total of 100 μL of the sample, incubated for predefined duration, was transferred to a fresh e-tube. Next, 200 μL of acetonitrile containing tegoprazan-d6 (0.5 μM) was added, vortexed for 5 min, and centrifuged at 16,200× g and 4 °C for 10 min. The concentrations of the remaining tegoprazan and M1 were determined by LC–MS/MS. All experiments were performed in duplicate. CLint,rCYP levels were assessed using the results of the disappearance test. The terminal slope of the linear regression was used to determine the CLint for tegoprazan. The CLint resulting from rCYPs was calculated using Equation (3):(3) CLint,rCYP(μL/min/pmol CYP)=0.693/t1/2×1400/concentration of CYP […]

[3] = biological target: T3, CYP3A4 (Homo sapiens, UniProt P08684); experiment: Intrinsic clearance using recombinant CYPs: CYP3A4; format: in vitro ADME
T3 construct: purchased Corning Life Sciences (Woburn, MA, USA)
Description: as §1, §2

[4] = cited from earlier work
[5] = biological target: porcine H^+/K^+-ATPase; details: experimental; read-out: half maximal inhibitory concentration (IC50); cited from earlier work
[6] = ADAM model prediction of regional absorption, gut metabolism, surface solubility and residence time; parameters: species or system human; details: at 30 min after a high-fat meal
Description: The absorption of tegoprazan was applied to the advanced dissolution, absorption, and metabolism (ADAM) model, and the diffusion layer model (DLM) built into SimCYP® was applied to the considered formulation and pH-dependent solubility of tegoprazan. The permeability of tegoprazan was determined by a Caco-2 permeability assay and optimized by parameter estimation. Caco-2 permeability was optimized such that the predicted concentration–time profiles were fitted to clinical study data. The metabolite was generated by the metabolism of the parent drug; therefore, absorption was not considered.
Postprandial PK profiles were predicted using an established model. Concentration–time profiles were obtained following a single oral dose (50 mg) of tegoprazan in the fasting state or 30 min after a high-fat diet. The predicted AUClast, Cmax, and Tmax values were compared with those of a previous clinical study.

[7] = Physicochemical properties (solubility, pKa, LogP, BCS class); details: from high permeability and low solubility
[8] = 1 μM, experimental (initial model value)
[9] = At 30 min after a high-fat meal, Observed (n = 12), single 50 mg, ref 34 (footnote; text: ref 16)

T1 sequence (P33261 whole entry): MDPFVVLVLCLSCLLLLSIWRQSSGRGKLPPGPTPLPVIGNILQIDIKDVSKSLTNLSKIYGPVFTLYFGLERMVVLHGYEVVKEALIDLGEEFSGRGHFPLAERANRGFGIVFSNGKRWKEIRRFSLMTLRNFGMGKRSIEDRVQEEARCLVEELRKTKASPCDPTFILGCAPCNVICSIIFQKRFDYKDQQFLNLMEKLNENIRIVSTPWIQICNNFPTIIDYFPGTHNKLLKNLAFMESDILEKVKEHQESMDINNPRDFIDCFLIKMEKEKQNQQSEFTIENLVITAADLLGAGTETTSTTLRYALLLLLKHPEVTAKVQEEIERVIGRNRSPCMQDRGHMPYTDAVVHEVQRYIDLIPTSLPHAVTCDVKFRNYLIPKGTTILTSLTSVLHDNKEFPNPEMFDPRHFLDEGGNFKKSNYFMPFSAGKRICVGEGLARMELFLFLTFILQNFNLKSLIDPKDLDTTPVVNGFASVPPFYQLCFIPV
T3 sequence (P08684 whole entry): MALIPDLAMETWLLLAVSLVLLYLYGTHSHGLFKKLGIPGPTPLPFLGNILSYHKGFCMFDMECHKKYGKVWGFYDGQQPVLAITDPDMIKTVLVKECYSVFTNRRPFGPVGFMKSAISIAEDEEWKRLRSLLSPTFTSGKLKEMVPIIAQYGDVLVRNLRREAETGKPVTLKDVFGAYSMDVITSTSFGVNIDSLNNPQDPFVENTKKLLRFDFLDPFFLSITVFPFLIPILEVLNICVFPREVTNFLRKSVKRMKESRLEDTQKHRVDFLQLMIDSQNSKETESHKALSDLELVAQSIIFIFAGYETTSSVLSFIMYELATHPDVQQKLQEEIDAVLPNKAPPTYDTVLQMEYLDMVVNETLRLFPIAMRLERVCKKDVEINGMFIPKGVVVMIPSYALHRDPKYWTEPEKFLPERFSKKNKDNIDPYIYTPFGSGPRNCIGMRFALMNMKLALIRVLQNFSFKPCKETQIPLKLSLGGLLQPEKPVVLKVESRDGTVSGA

CLint, CYP2C19 [1, 8]: 0.61 µL/min/pmol and 0.614 µL/min/pmol
half-life at 1 μM ([1]; human, recombinant CYP2C19, rCYP2C19): 63.2 min
Slope (disappearance) ([1]; rCYP2C19, 1 μM): -0.011
CLint, CYP2C8 ([2]; experimental data): 0.06 µL/min/pmol and 0.060 µL/min/pmol
Slope (disappearance) ([2]; rCYP2C8): 0.002
CLint, CYP3A4 [3, 8]: 0.86 µL/min/pmol and 0.855 µL/min/pmol
half-life at 1 μM ([3]; human, recombinant CYP3A4, rCYP3A4): 22.7 min
Slope (disappearance) ([3]; rCYP3A4, 1 μM): -0.031
increase of predicted absorbed fraction in the duodenum, fed vs fasting [6]: approximately 72.7%
increase of predicted mean residence time in the stomach, fed vs fasting [6]: approximately 170.4%
increase of predicted surface solubility in the duodenum, fed vs fasted [6]: 40.3%
increase of predicted surface solubility in the stomach, fed vs fasted [6]: 14.8%
biopharmaceutics classification system (BCS) class [7]: class II
SMILES: Cc1nc2cc(C(=O)N(C)C)cc(O[C@H]3CCOc4cc(F)cc(F)c43)c2[nH]1 [tegoprazan]
Tmax ([4]; At 30 min after a high-fat meal, Observed (n = 12), single 50 mg, median (min–max), ref 34 (footnote; text: ref 16)): 3.0 (0.5–8.0) h
AUC0–24 h [4, 9]: 3017 ± 1194 ng·h/mL
Cmax [4, 9]: 492.0 ± 293.9 ng/mL
AUC0–24 h ([4]; Fast, Observed (n = 12), single 50 mg, mean ± SD, ref 34 (footnote; text: ref 16)): 2837 ± 1055 ng·h/mL
Cmax ([4]; Fast, Observed (n = 12), single 50 mg, ref 34 (footnote; text: ref 16)): 803.0 ± 156.2 ng/mL
Cmax ([4]; administered at 30 min after high-fat meal, observed): 492 ng/mL
median Tmax ([4]; at 30 min before a high-fat meal, observed): 28.8 min
Cmax ([4]; fasting state, observed): 803 ng/mL
Cmax at 30 min after a high-fat meal compared with fasting state (decreased to) ([4]; observed): 38.7%
IC50 [5]: 530 nM
